Laboratory results published in US11377440B2, “Modulators of stimulator of interferon genes (STING)” (GlaxoSmithKline Intellectual Property Development Limited, priority 2017, dated 2022).

System: T1, STING
T1 construct: endogenous in cells; host or cells: THP-1
Assay: Functional assay IV (THP-1 antagonist assay), IFNβ secretion after Bacmam virus
Format: cell-based, human
Conditions: THP-1 cells, Bacmam virus MOI of 40 pfu/cell; upper limit of the assay 9.1

CCn1nc(C)cc1C(=O)/N=c1\n(C)c2cc(C(N)=O)ccc2n1CCCCCn1/c(=N/C(=O)c2cc(C)nn2CC)n(C)c2cc(C(N)=O)ccc21 [Example 24]
THP-1 antagonist assay (pIC50): 4.6
